Several values for one entry are separate records, joined by “and”; a condition that tells them apart may be missing. Identical values can stand only once.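 Dose response: 5 concentrations. Exposure: 48 h. Format: 96-well plates. Endpoint: linear interpolation; highest concentration if not reached. Abbreviation: GI50, concentration required for 50% inhibition of growth. Definition used: TGI = concentration required for complete inhibition of growth.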
Experiments:
Experiment in all cases: inhibition of tumour cell growth, NCI panel, 48 h
MALME-3M melanoma = tested on: MALME-3M melanoma
EKVX NSCLC = tested on: EKVX NSCLC
HCC-2998 colon = tested on: HCC-2998 colon
CCRF-CEM leukemia = tested on: CCRF-CEM leukemia
ACHN renal = tested on: ACHN renal
HCT-15 colon = tested on: HCT-15 colon
SF-539 CNS = tested on: SF-539 CNS
OVCAR-4 ovarian = tested on: OVCAR-4 ovarian
K-562 leukemia = tested on: K-562 leukemia
SW-620 colon = tested on: SW-620 colon

Structure (SMILES) | GI50 (MALME-3M melanoma) [µM] | TGI (MALME-3M melanoma) | GI50 (EKVX NSCLC) [µM] | TGI (EKVX NSCLC) | GI50 (HCC-2998 colon) [µM] | TGI (HCC-2998 colon) | GI50 (CCRF-CEM leukemia) | TGI (CCRF-CEM leukemia) | GI50 (ACHN renal) [µM] | TGI (ACHN renal) | GI50 (HCT-15 colon) [µM] | TGI (HCT-15 colon) | GI50 (SF-539 CNS) | TGI (SF-539 CNS) | TGI (OVCAR-4 ovarian) | GI50 (K-562 leukemia) [µM] | TGI (K-562 leukemia) | GI50 (SW-620 colon) | TGI (SW-620 colon) | GI50 (OVCAR-4 ovarian) [µM]
COc1ccc(C(=O)/C(Br)=C/C(=O)O)cc1 | 18.8 | 47.3 µM and 45.2 µM | 28 | 181 µM and 115 µM | 26.6 | 76.3 µM and 51.8 µM | 3.22 µM and 9.43 µM | 61 µM and 81.7 µM | 78.8 | 293 µM and 235 µM | 10.6 | 101 µM and 94.4 µM | 9.18 µM and 27.3 µM | 90.7 µM and 87.3 µM | 125 µM and 120 µM | 18.8 | 281 µM and 352 µM | 19.2 µM and 24.7 µM | 63.6 µM and 145 µM | –
O=C(O)CSc1n[nH]c(-c2ccc(O)cc2)n1 | – | > 100 µM | – | > 100 µM | – | > 100 µM | – | > 100 µM | – | > 100 µM | – | > 100 µM | – | > 100 µM | > 100 µM | – | > 100 µM | – | > 100 µM | –
O=C(Nc1ccc(N2CCNCC2)cc1)c1[nH]ncc1Nc1ncnc2sc3c(c12)CCC3 | 0.121 | 1.77 µM | 0.194 | 1.94 µM | 0.62 | 2.19 µM | 0.222 µM | 1.13 µM | 0.181 | 1.16 µM | 0.224 | 1.29 µM | 0.399 µM | 1.81 µM | 2.26 µM | 0.115 | 0.472 µM | 0.157 µM | 0.756 µM | 0.321
CCOC(=O)c1ccc(NC(=O)N2CC(C)OC(C)C2)cc1 (stereo not drawn) | > 100 | > 100 µM | > 100 | > 100 µM | > 100 | > 100 µM | > 100 µM | > 100 µM | > 100 | > 100 µM | > 100 | > 100 µM | > 100 µM | > 100 µM | > 100 µM | > 100 | > 100 µM | > 100 µM | > 100 µM | > 100
COc1ccc2c(c1)/C(=C\c1c(C)nc3sc(C)cn13)C(=O)N2C | 7.09 | 73.3 µM | 16.7 | 73.8 µM | 1.37 | 4.68 µM | 5.46 µM | > 100 µM | 4.82 | 62.7 µM | 2.73 | 40.3 µM | 1.91 µM | 6.63 µM | > 100 µM | 1.83 | > 100 µM | 3.25 µM | 18 µM | 26.4
C=C1C(=O)O[C@H]2[C@H]1CC/C(COC(=O)c1cc3cc(F)ccc3[nH]1)=C\CC[C@@]1(C)O[C@@H]21 | 1.67 | 3.53 µM | 1.58 | 3.71 µM | 2.02 | 3.74 µM | 0.919 µM | 6.52 µM | 1.46 | 2.94 µM | 1.15 | 3.34 µM | 1.55 µM | 3.19 µM | 3.92 µM | 2.24 | 12.1 µM | 1.43 µM | 4.09 µM | 1.67
COc1cc(/C(C#N)=C/c2ccc3c(c2OC)OCO3)cc2c1OCO2 | 0.264 | 41.1 µM | 0.652 | > 100 µM | 0.182 | 10.8 µM | 0.0601 µM | 4.62 µM | 2.43 | > 58.9 µM | 0.0748 | > 100 µM | 0.0964 µM | 2.29 µM | > 100 µM | 0.0358 | > 32.9 µM | 0.0412 µM | > 100 µM | 1.45
CC(=O)O/C=C(/C=C/OC(C)=O)C(C/C=C(\C)C#CC=C(C)C)OC(C)=O (stereo not drawn) | – | > 100 µM | – | > 100 µM | – | > 100 µM | – | > 100 µM | – | > 100 µM | – | 50.3 µM | – | 54.6 µM | > 100 µM | – | > 100 µM | – | > 100 µM | –
CS(=O)(=O)CCNCc1nc(-c2ccc3ncnc(Nc4ccc(F)c(Cl)c4)c3c2)cs1 | > 23.6 | > 25 µM | 0.0927 | > 25 µM | > 25 | > 25 µM | 15.4 µM | > 25 µM | 0.785 | > 25 µM | 17.5 | > 25 µM | > 25 µM | > 25 µM | > 25 µM | > 12.5 | > 19.7 µM | > 25 µM | > 25 µM | 14.7
COc1ccc2nc(N/N=C(\C)c3ccccn3)cc(C)c2c1 | 0.23 | 0.697 µM | 0.134 | 0.971 µM | 0.348 | 2.06 µM | 0.0679 µM | 0.4 µM | 0.22 | 1.21 µM | 0.0916 | 1.65 µM | 0.269 µM | 1.23 µM | 2.57 µM | 0.303 | 1.3 µM | 0.381 µM | 1.75 µM | 0.156
Cc1nc2c(nc1C)C(=O)c1cc(O)ccc1C2=O | – | 43.7 µM | – | > 100 µM | – | > 100 µM | – | > 100 µM | – | > 100 µM | – | > 67.3 µM | – | > 100 µM | > 100 µM | – | > 100 µM | – | > 100 µM | –
O=C1NCc2ccc3c(-c4cccc(Cl)c4)c[nH]c3c21 | 0.191 | > 50 µM | 0.381 | > 50 µM | 0.734 | > 22.9 µM | 0.192 µM | > 50 µM | 0.333 | > 50 µM | 0.163 | > 50 µM | 0.166 µM | 3.29 µM | > 50 µM | 0.134 | > 50 µM | 0.195 µM | > 50 µM | 1.95
COc1ccc2c(c1)[nH]c(=O)c1c3cc(C)c(C)cc3cn21 | 0.161 | 2.76 µM | 0.0563 | 4.67 µM | 0.0235 | 0.0802 µM | < 0.0149 µM | – | < 0.0173 | 1.58 µM | < 0.0142 | 0.363 µM | 0.0186 µM | 0.0578 µM | 3.95 µM | < 0.01 | 0.14 µM | < 0.01 µM | 1.47 µM | 0.032
CCOc1ccccc1NC(=O)C(=O)CC(=O)c1c(C)n([O-])c2ccccc2[n+]1=O | – | > 100 µM | – | > 100 µM | – | > 100 µM | – | > 100 µM | – | > 100 µM | – | > 100 µM | – | > 100 µM | > 100 µM | – | > 100 µM | – | > 100 µM | –

Source: PubChem BioAssay (NCI)
